# Measured values from ChEMBL document CHEMBL4002587 (Eur J Med Chem, 2017).
# Assays:
# [1] = molecular target: Prothrombin (Homo sapiens, UniProt P00734); test: Inhibition of human thrombin preincubated for 10 mins followed by Ac-FVR-AMC substrate addition measured every 20s for 10 mins by fluorescence assay
# [2] = species on record: Rattus norvegicus; test: Anti-thrombotic activity in Sprague-Dawley rat assessed as inhibition of arteriovenous thrombosis weight at 0.5 mg/ml relative to control; assay type: functional
# [3] = Oral bioavailability in human at 10 to 400 mg administered as single dose measured after 24 hrs; assay type: ADME, organism-based; conditions: in vivo
SMILES,IC50 [1],inhibition (INH) [2],bioavailability [3]
Cc1ccnc(N(CCC(=O)O)C(=O)c2ccc3c(c2)nc(CNc2ccc(C(=N)N)cc2F)n3C)c1,3.33 nM,,
Cn1c(CNc2ccc(C(=N)N)cc2F)nc2cc(C(=O)N(CCC(=O)O)c3ccc(F)c(F)c3)ccc21,14.6 nM,,
Cc1cccc(N(CCC(=O)O)C(=O)c2ccc3c(c2)nc(CNc2ccc(C(=N)N)cc2F)n3C)c1,2.26 nM,,
Cc1ccc(C)c(N(CCC(=O)O)C(=O)c2ccc3c(c2)nc(CNc2ccc(C(=N)N)cc2F)n3C)c1,3.35 nM,,
Cc1cc(C)cc(N(CCC(=O)O)C(=O)c2ccc3c(c2)nc(CNc2ccc(C(=N)N)cc2F)n3C)c1,3.7 nM,,
Cn1c(CNc2ccc(C(=N)N)cc2F)nc2cc(C(=O)N(CCC(=O)O)c3ccc(F)cc3F)ccc21,0.84 nM,,
Cc1cccc(C)c1N(CCC(=O)O)C(=O)c1ccc2c(c1)nc(CNc1ccc(C(=N)N)cc1F)n2C,12.8 nM,,
Cn1c(CNc2ccc(C(=N)N)cc2F)nc2cc(C(=O)N(CCC(=O)O)c3cc(F)cc(F)c3)ccc21,1.18 nM,,
Cc1cccc(N(CCC(=O)O)C(=O)c2ccc3c(c2)nc(CNc2ccc(C(=N)N)cc2F)n3C)c1C,1.54 nM,84.24%,
Cc1cccc(N(CCC(=O)O)C(=O)c2ccc3c(c2)nc(CNc2ccc(C(=N)N)cc2F)n3C)n1,1.42 nM,84.57%,
Cc1cc(N(CCC(=O)O)C(=O)c2ccc3c(c2)nc(CNc2ccc(C(=N)N)cc2F)n3C)ccc1F,3.2 nM,,
Cn1c(CNc2ccc(C(=N)N)cc2)nc2cc(C(=O)N(CCC(=O)O)c3ccccn3)ccc21 [DABIGATRAN],,85.07%,6.5%
